Reference: ChEMBL document CHEMBL4834443, “Identification of bioactive compounds from mulberry enhancing glucose-stimulated insulin secretion” (Bioorg Med Chem Lett, 2021)
Activity calls are given as the source filed them. No cut-off for these calls is given here.

Experiments:
INS1 [1] = experiment: Cytotoxicity against rat INS1 cells assessed as cell viability at 1 to 10 uM measured after 24 hrs by MTT assay; type: cell-based; details: ins1, 24 h, dose 1-10 µM
INS1 [2] = experiment: Induction of insulin secretion in rat INS1 cells assessed as increase in phosphorylation of AKT at Ser 473 at 2.5 uM measured after 24 hrs by western blot assay; type: functional, cell-based
INS1 [3] = experiment: Induction of insulin secretion in rat INS1 cells assessed as increase in IRS-2 expression at 2.5 uM measured after 24 hrs by western blot assay; type: functional, cell-based
INS1 [4] = experiment: Induction of insulin secretion in rat INS1 cells assessed as increase in PDX-1 expression at 2.5 uM measured after 24 hrs by western blot assay; type: functional, cell-based
INS1 [5] = experiment: Stimulation of glucose stimulated insulin secretion in rat INS1 cells assessed as glucose stimulation index at 5 uM in presence of glucose measured after 1 hr; type: functional
INS1 [6] = experiment: Induction of insulin secretion in rat INS1 cells assessed as increase in phosphorylation of PI3K at 2.5 uM measured after 24 hrs by western blot assay; type: functional, cell-based
INS1 [7] = experiment: Induction of insulin secretion in rat INS1 cells assessed as increase in phosphorylation of IRS 2 at Ser 731 at 2.5 uM measured after 24 hrs by western blot assay; type: functional, cell-based
INS1 [8] = experiment: Induction of insulin secretion in rat INS1 cells assessed as increase in AKT expression at 2.5 uM measured after 24 hrs by western blot assay; type: functional, cell-based
INS1 [9] = experiment: Stimulation of glucose stimulated insulin secretion in rat INS1 cells assessed as glucose stimulation index at 2.5 uM in presence of glucose measured after 1 hr; type: functional
INS1 [10] = experiment: Induction of insulin secretion in rat INS1 cells assessed as increase in PI3K expression at 2.5 uM measured after 24 hrs by western blot assay; type: functional, cell-based
INS1 [11] = experiment: Cytotoxicity against rat INS1 cells assessed as cell viability at 10 uM measured after 24 hrs by MTT assay; type: cell-based; details: ins1, 24 h
INS1 [12] = experiment: Induction of insulin secretion in rat INS1 cells assessed as increase in PDX-1 expression at 5 uM measured after 24 hrs by western blot assay; type: functional, cell-based
INS1 [13] = experiment: Induction of insulin secretion in rat INS1 cells assessed as increase in phosphorylation of AKT at Ser 473 at 5 uM measured after 24 hrs by western blot assay; type: functional, cell-based
INS1 [14] = experiment: Induction of insulin secretion in rat INS1 cells assessed as increase in phosphorylation of PI3K at 5 uM measured after 24 hrs by western blot assay; type: functional, cell-based
INS1 [15] = experiment: Induction of insulin secretion in rat INS1 cells assessed as increase in PI3K expression at 5 uM measured after 24 hrs by western blot assay; type: functional, cell-based
INS1 [16] = experiment: Induction of insulin secretion in rat INS1 cells assessed as increase in AKT expression at 5 uM measured after 24 hrs by western blot assay; type: functional, cell-based
INS1 [17] = experiment: Induction of insulin secretion in rat INS1 cells assessed as increase in phosphorylation of IRS 2 at Ser 731 at 5 uM measured after 24 hrs by western blot assay; type: functional, cell-based
INS1 [18] = experiment: Induction of insulin secretion in rat INS1 cells assessed as increase in IRS-2 expression at 5 uM measured after 24 hrs by western blot assay; type: functional, cell-based

Question: How did the Activity (INS1 [1]) turn out when `COC(=O)[C@@H]1CCC(=O)N1` was run?
Answer: The Activity was “Non-Toxic”.

Question: For `C[C@@H](C(=O)O)[C@H]1CCO[C@]1(C)O`, which Activity (INS1 [1]) is on record?
Answer: Its Activity is “Non-Toxic”.

Question: With `O=Cc1coc2ccccc12` as the molecule, how does the Activity (INS1 [1]) read?
Answer: Its Activity is “Non-Toxic”.

Question: Which results are given for `O=C1CC[C@@H](O)N1`?
Answer: Activity (INS1 [2]): Active; Activity (INS1 [3]): Active; Activity (INS1 [4]): Active; Activity_index (INS1 [5]): 11.31; Activity (INS1 [6]): Active; Activity (INS1 [7]): Active; Activity (INS1 [1]): Non-Toxic; Activity (INS1 [8]): Active; Activity_index (INS1 [9]): 6.57; Activity (INS1 [10]): Active

Question: With `Cc1ccc(S(=O)(=O)NC(=O)NN2CC3CCCC3C2)cc1` (configuration not stated) [GLICLAZIDE] as the molecule, how does the Activity_index (INS1 [5]) read?
Answer: Its Activity_index is 3.47.

Question: What about the Activity (INS1 [11]) of the same molecule?
Answer: Its Activity is “Toxic”.

Question: What about the Activity_index (INS1 [9]) of the same molecule?
Answer: The Activity_index was 2.46.

Question: `c1ccc2[nH]ccc2c1` [INDOLE] was tested. Which Activity (INS1 [12]) did it give?
Answer: Its Activity is “Active”.

Question: What about the Activity (INS1 [13]) of the same molecule?
Answer: The Activity was “Active”.

Question: And the Activity_index (INS1 [5])?
Answer: Its Activity_index is 7.72.

Question: And the Activity (INS1 [14])?
Answer: Its Activity is “Active”.

Question: What about the Activity (INS1 [1]) of the same molecule?
Answer: The Activity was “Non-Toxic”.

Question: What about the Activity (INS1 [15]) of the same molecule?
Answer: Its Activity is “Active”.

Question: What about the Activity (INS1 [16]) of the same molecule?
Answer: The Activity was “Active”.

Question: And the Activity_index (INS1 [9])?
Answer: Its Activity_index is 3.31.

Question: What about the Activity (INS1 [17]) of the same molecule?
Answer: The Activity was “Active”.

Question: And the Activity (INS1 [18])?
Answer: The Activity was “Active”.

Question: `CC1(C)C[C@H](O)C[C@@]2(C)OC(=O)C=C12` [LOLIOLIDE] was tested. Which Activity (INS1 [1]) did it give?
Answer: Its Activity is “Non-Toxic”.
